The values below are quoted from earlier work in patent publication US20010039262A1, “Methods and compositions for the treatment of cardiac indications” (priority 2000, published 2001).

For one data set, the system named is patients with severe HF. The conditions noted are these: spironolactone administered along with captopril and furosemide.
Data set [1] concerns patients with stable Congestive Heart Failure (NYHA class II-IV).
The mark [2] stands for this setting: heart failure patients treated with spironolactone.

As to `CC(=O)S[C@@H]1CC2=CC(=O)CC[C@]2(C)[C@H]2CC[C@@]3(C)[C@@H](CC[C@@]34CCC(=O)O4)[C@H]12` [spironolactone], in the data set on patients with severe HF, the “reduction of morbidity and mortality” value is 27%. For the same molecule, in data set [1] (31 patients with stable CHF (NYHA class II-IV), spironolactone vs placebo in addition to diuretics and ACE inhibitor), the morbidity entry is reported as “lowered”. In data set [1] (setting [2]), the “early morning rise in heart rate” value was “reduced”, the heart rate variability result is reported as “improved” and the vascular collagen turnover entry is reported as “reduced”. In addition, the “reduction in myocardial fibrosis activity” value in data set [1] (spironolactone 50-100 mg/day in addition to diuretics and ACE inhibitor, 8 weeks of active therapy) is “approximately 20%”.
